This is an account of results in ChEMBL document CHEMBL1155691, “Novel extracellular diterpenoids with biological activity from the cyanobacterium Nostoc commune” (2000).

Type in all cases: functional
Assay [1] deals with Escherichia coli. In words: Antimicrobial activity against Escherichia coli ATCC 25922.
The test system of assay [2] is Bacillus cereus. In words: Antimicrobial activity against Bacillus cereus ATCC 10702.
Assay [3] deals with Staphylococcus epidermidis. In words: Antimicrobial activity against Staphylococcus epidermidis ATCC 12228.
Assay [4] has as its system Caco-2. The assay can be described thus: Cytotoxicity against human Caco-2 cells.
The test system of assay [5] is KB. The assay can be described thus: Cytotoxicity against human KB cells.
In assay [6] the test system is Biomphalaria glabrata. In words: Antimolluscicidal activity against Biomphalaria glabrata.

The structures appear in SMILES notation. ≈ marks a conversion by molar mass, not a printed value.

Regarding `C[C@@H]1CC[C@@]2(C)[C@@H](CC[C@]3(C)[C@@H]2CC[C@@]3(C)C(=O)O)[C@]1(C)Cc1cc(C(=O)O)ccc1O` [COMNASTIN C], the MIC came to 64 µg/mL (≈ 145 µM) in assay [1], 32 µg/mL (≈ 72.3 µM) in assay [2] and 16 µg/mL (≈ 36.2 µM) in assay [3].
The corresponding values for `C[C@@H]1CC[C@@]2(C)[C@@H](CC[C@]3(C)[C@@H]2CC[C@@]3(C)CO)[C@]1(C)Cc1cc(C(=O)O)ccc1O` [COMNASTIN A] are 128 µg/mL (≈ 299 µM), 32 µg/mL (≈ 74.7 µM) and 16 µg/mL (≈ 37.3 µM).
For `COC(OC)[C@]1(C)CC[C@@H]2[C@@]3(C)CC[C@@H](C)[C@@](C)(Cc4cc(C(=O)O)ccc4O)[C@@H]3CC[C@]21C` [COMNASTIN D], in that order: 128 µg/mL (≈ 271 µM), 16 µg/mL (≈ 33.9 µM) and 32 µg/mL (≈ 67.7 µM).
The molecule `CN(C)[C@@H]1C(O)=C(C(N)=O)C(=O)[C@@]2(O)C(O)=C3C(=O)c4c(O)cccc4[C@@](C)(O)[C@H]3C[C@@H]12` [TETRACYCLINE] had an MIC in assay [1] of 64 µg/mL (≈ 144 µM).
`CC(=O)[C@@H]1CC[C@@H]2[C@@]3(C)CC[C@@H](C)[C@@](C)(Cc4cc(C(=O)O)ccc4O)[C@@H]3CC[C@]21C` [COMNASTIN E]: the MIC is 128 µg/mL (≈ 300 µM) in assay [2] and 4 µg/mL (≈ 9.38 µM) in assay [3].
Consider `COc1cc([C@@H]2c3cc4c(cc3[C@H](O)[C@H]3COC(=O)[C@H]23)OCO4)cc(OC)c1OC` [PODOFILOX], for which the MIC came to 0.02 µg/mL (≈ 0.0483 µM) in assay [4] and 0.01 µg/mL (≈ 0.0241 µM) in assay [5].
Consider `C[C@@H]1CC[C@@]2(C)[C@@H](CC[C@]3(C)[C@@H]2CC[C@@]3(C)C=O)[C@]1(C)Cc1cc(C(=O)O)ccc1O` [COMNASTIN B], for which the MIC was determined as 128 µg/mL (≈ 300 µM) in assay [1]; 32 µg/mL (≈ 75 µM) in assay [2]; 0.18 µg/mL (≈ 0.422 µM) in assay [4]; 0.4 µg/mL (≈ 0.938 µM) in assay [5]; 16 µg/mL (≈ 37.5 µM) in assay [3]; 20 µg/mL (≈ 46.9 µM) in assay [6].
In the case of `O=C(N[C@H](CO)[C@H](O)c1ccc([N+](=O)[O-])cc1)C(Cl)Cl` [CHLORAMPHENICOL], the MIC worked out at 8 µg/mL (≈ 24.8 µM) in assay [2] and 4 µg/mL (≈ 12.4 µM) in assay [3].
